Reference: ChEMBL document CHEMBL2346550, “Synthesis of novel azo compounds containing 5(4H)-oxazolone ring as potent tyrosinase inhibitors” (Bioorg Med Chem, 2013)

Columns and labels:
Tyrosinase = molecular target: T1, Tyrosinase (Agaricus bisporus, UniProt O42713); test: Inhibition of diphenolase activity of mushroom tyrosinase assessed as decrease in L-DOPA chrome formation using L-DOPA as substrate preincubated with enzyme for 10 mins prior to substrate addition measured for 10 mins by spectrophotometric assay
T1 sequence (O42713 whole entry): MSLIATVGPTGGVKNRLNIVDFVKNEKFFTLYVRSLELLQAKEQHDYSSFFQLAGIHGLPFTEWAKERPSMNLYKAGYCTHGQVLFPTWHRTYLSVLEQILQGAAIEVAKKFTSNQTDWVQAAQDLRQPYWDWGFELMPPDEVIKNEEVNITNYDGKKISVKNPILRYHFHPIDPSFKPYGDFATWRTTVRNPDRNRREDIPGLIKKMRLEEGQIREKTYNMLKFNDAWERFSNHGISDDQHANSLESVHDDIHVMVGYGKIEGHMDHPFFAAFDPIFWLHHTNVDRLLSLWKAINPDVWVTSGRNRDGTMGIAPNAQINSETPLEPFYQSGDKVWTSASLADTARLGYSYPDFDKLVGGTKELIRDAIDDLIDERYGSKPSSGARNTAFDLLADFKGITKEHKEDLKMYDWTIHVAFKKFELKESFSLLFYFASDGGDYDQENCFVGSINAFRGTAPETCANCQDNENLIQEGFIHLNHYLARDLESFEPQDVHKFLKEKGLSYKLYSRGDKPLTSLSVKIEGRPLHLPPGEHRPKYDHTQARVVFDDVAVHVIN

[1] = Cytotoxicity against mouse B16F10 cells assessed as cell viability at 20 ug/ml after 72 hrs by micro-culture MTT assay; format: cell-based, B16-F10; settings: read-out: Activity
B16-F10 = test: Inhibition of melanin production in mouse B16F10 cells at 20 ug/ml after 72 hrs; format: functional; settings: B16-F10, 72 h

SMILES | IC50 (Tyrosinase) | viability at 72 h, 20 ug/ml [1] | inhibition at 20 µg/mL (B16-F10)
CC(=O)Oc1c(/N=N/c2ccc(C3=N/C(=C/c4ccc(F)cc4)C(=O)O3)cc2)ccc2ccccc12 | 4.33 µM | 72.1% | 31.3%
CC(=O)Oc1c(/N=N/c2ccc(C3=N/C(=C/c4ccc(OC(F)(F)F)cc4)C(=O)O3)cc2)ccc2ccccc12 | 3.98 µM | 73.5% | 33.4%
CC(=O)Oc1ccc2ccccc2c1/N=N/c1ccc(C2=N/C(=C/c3ccc(F)cc3)C(=O)O2)cc1 | 3.91 µM | 66.7% | 32.5%

Compounds with a lower IC50 (Tyrosinase), results first:

IC50 (Tyrosinase) | SMILES | viability at 72 h, 20 ug/ml [1] | inhibition at 20 µg/mL (B16-F10)
3.04 µM | CC(=O)Oc1ccc2ccccc2c1/N=N/c1ccc(C2=N/C(=C/c3ccc(OC(F)(F)F)cc3)C(=O)O2)cc1 | 68.7% | 35.6%
2.01 µM | CN(C)c1ccc(/N=N/c2ccc(C3=N/C(=C/c4ccc(F)cc4)C(=O)O3)cc2)cc1 | 71.9% | 35.7%
1.44 µM | CN(C)c1ccc(/N=N/c2ccc(C3=N/C(=C/c4ccc(OC(F)(F)F)cc4)C(=O)O3)cc2)cc1 | 67.3% | 34.3%
